Measured values published in the CheMixHub ionic liquid set.
± gives the uncertainty stated by the source.

Assay: xn = mol fraction of the nth substance listed

SMILES: CCCC[n+]1ccn(C)c1.F[B-](F)(F)F + CC(C)=O
- electrical conductivity (296.15 K, 101 kPa, x2 = 0): 0.35 ± 0.04 S/m
- electrical conductivity (296.15 K, 101 kPa, x2 = 0.3019): 2.03 ± 0.2 S/m
- electrical conductivity (296.15 K, 101 kPa, x2 = 0.6252): 2.89 ± 0.29 S/m
- electrical conductivity (296.15 K, 101 kPa, x2 = 0.7956): 3.5 ± 0.35 S/m
- electrical conductivity (296.15 K, 101 kPa, x2 = 0.8537): 3.61 ± 0.36 S/m
- electrical conductivity (296.15 K, 101 kPa, x2 = 0.9008): 3.71 ± 0.37 S/m
- electrical conductivity (296.15 K, 101 kPa, x2 = 0.9396): 2.92 ± 0.29 S/m
- electrical conductivity (296.15 K, 101 kPa, x2 = 0.9722): 1.66 ± 0.17 S/m
- electrical conductivity (298.15 K, 101 kPa, x2 = 0): 0.194 ± 0.023 S/m
- viscosity (298.15 K, 101 kPa, x2 = 0): 116 ± 40 mPa·s
- electrical conductivity (298.15 K, 101 kPa, x2 = 0.0973): 0.311 ± 0.037 S/m
- viscosity (298.15 K, 101 kPa, x2 = 0.0973): 78 ± 14 mPa·s
- electrical conductivity (298.15 K, 101 kPa, x2 = 0.1863): 0.44 ± 0.053 S/m
- viscosity (298.15 K, 101 kPa, x2 = 0.1863): 53.3 ± 2.1 mPa·s
- electrical conductivity (298.15 K, 101 kPa, x2 = 0.2878): 0.623 ± 0.075 S/m
- viscosity (298.15 K, 101 kPa, x2 = 0.2878): 34.2 ± 3.4 mPa·s
- electrical conductivity (298.15 K, 101 kPa, x2 = 0.3877): 0.87 ± 0.1 S/m
- viscosity (298.15 K, 101 kPa, x2 = 0.3877): 21.4 ± 2.2 mPa·s
- electrical conductivity (298.15 K, 101 kPa, x2 = 0.4853): 1.18 ± 0.14 S/m
- viscosity (298.15 K, 101 kPa, x2 = 0.4853): 12.9 ± 1.4 mPa·s
- electrical conductivity (298.15 K, 101 kPa, x2 = 0.5858): 1.61 ± 0.19 S/m
- viscosity (298.15 K, 101 kPa, x2 = 0.5858): 7.39 ± 0.88 mPa·s
- electrical conductivity (298.15 K, 101 kPa, x2 = 0.6762): 1.98 ± 0.24 S/m
- viscosity (298.15 K, 101 kPa, x2 = 0.6762): 4.24 ± 0.56 mPa·s
- electrical conductivity (298.15 K, 101 kPa, x2 = 0.8151): 2.2 ± 0.26 S/m
- viscosity (298.15 K, 101 kPa, x2 = 0.8151): 1.61 ± 0.23 mPa·s
- viscosity (303.15 K, 100 kPa, x1 = 0.0999): 0.726 ± 0.009 mPa·s
- viscosity (303.15 K, 100 kPa, x1 = 0.2): 1.48 ± 0.017 mPa·s
- viscosity (303.15 K, 100 kPa, x1 = 0.3002): 2.789 ± 0.032 mPa·s
- viscosity (303.15 K, 100 kPa, x1 = 0.4003): 4.968 ± 0.056 mPa·s
- viscosity (303.15 K, 100 kPa, x1 = 0.4996): 8.387 ± 0.092 mPa·s
- viscosity (303.15 K, 100 kPa, x1 = 0.6008): 14.14 ± 0.15 mPa·s
- viscosity (303.15 K, 100 kPa, x1 = 0.7006): 22.8 ± 0.25 mPa·s
- viscosity (303.15 K, 100 kPa, x1 = 0.7995): 35.07 ± 0.38 mPa·s
- viscosity (303.15 K, 100 kPa, x1 = 0.9): 54.72 ± 0.56 mPa·s
- viscosity (303.15 K, 100 kPa, x1 = 1): 85.4 ± 1.1 mPa·s
- viscosity (313.15 K, 100 kPa, x1 = 0.0999): 0.654 ± 0.008 mPa·s
- viscosity (313.15 K, 100 kPa, x1 = 0.2): 1.3 ± 0.015 mPa·s
- viscosity (313.15 K, 100 kPa, x1 = 0.3002): 2.394 ± 0.027 mPa·s
- viscosity (313.15 K, 100 kPa, x1 = 0.4003): 4.185 ± 0.047 mPa·s
- viscosity (313.15 K, 100 kPa, x1 = 0.4996): 6.706 ± 0.074 mPa·s
- viscosity (313.15 K, 100 kPa, x1 = 0.6008): 10.83 ± 0.12 mPa·s
- viscosity (313.15 K, 100 kPa, x1 = 0.7006): 16.72 ± 0.18 mPa·s
- viscosity (313.15 K, 100 kPa, x1 = 0.7995): 24.44 ± 0.26 mPa·s
- viscosity (313.15 K, 100 kPa, x1 = 0.9): 36.14 ± 0.39 mPa·s
- viscosity (313.15 K, 100 kPa, x1 = 1): 53.84 ± 0.55 mPa·s
- viscosity (323.15 K, 100 kPa, x1 = 0.0999): 0.595 ± 0.007 mPa·s
- viscosity (323.15 K, 100 kPa, x1 = 0.2): 1.171 ± 0.013 mPa·s
- viscosity (323.15 K, 100 kPa, x1 = 0.3002): 2.094 ± 0.024 mPa·s
- viscosity (323.15 K, 100 kPa, x1 = 0.4003): 3.567 ± 0.04 mPa·s
- viscosity (323.15 K, 100 kPa, x1 = 0.4996): 5.516 ± 0.062 mPa·s
- viscosity (323.15 K, 100 kPa, x1 = 0.6008): 8.67 ± 0.095 mPa·s
- viscosity (323.15 K, 100 kPa, x1 = 0.7006): 12.67 ± 0.14 mPa·s
- viscosity (323.15 K, 100 kPa, x1 = 0.7995): 17.99 ± 0.19 mPa·s
- viscosity (323.15 K, 100 kPa, x1 = 0.9): 25.35 ± 0.27 mPa·s
- viscosity (323.15 K, 100 kPa, x1 = 1): 36.27 ± 0.39 mPa·s

SMILES: CCCC[n+]1ccn(C)c1.F[B-](F)(F)F + NCCNCCN
- viscosity (298.15 K, 101.3 kPa, x1 = 1): 101.1 ± 4.2 mPa·s
- viscosity (303.15 K, 101.3 kPa, x1 = 1): 81.9 ± 3.4 mPa·s
- viscosity (308.15 K, 101.3 kPa, x1 = 1): 63.6 ± 2.6 mPa·s

SMILES: NCC(=O)NCC(=O)O + CCCCCCCCCCCC[N+](C)(C)Cc1ccccc1.[Cl-] + O
- electrical conductivity (293.15 K, 101 kPa, x1 = 0.0008948, x2 = 0): 0.00137 ± 8.4e-05 S/m
- electrical conductivity (298.15 K, 101 kPa, x1 = 0.0008948, x2 = 0): 0.00165 ± 0.0001 S/m
- electrical conductivity (303.15 K, 101 kPa, x1 = 0.0008948, x2 = 0): 0.00198 ± 0.00012 S/m
- electrical conductivity (308.15 K, 101 kPa, x1 = 0.0008948, x2 = 0): 0.00239 ± 0.00015 S/m
- electrical conductivity (313.15 K, 101 kPa, x1 = 0.0008948, x2 = 0): 0.00284 ± 0.00017 S/m

SMILES: CC[P+](CC)(CC)COCCOC.c1c[n-]nn1 + CCCCCC[n+]1ccn(C)c1.O=S(=O)([N-]S(=O)(=O)C(F)(F)F)C(F)(F)F
- viscosity (278.15 K, 100 kPa, x2 = 0.75): 235 ± 29 mPa·s
- viscosity (288.15 K, 100 kPa, x2 = 0.25): 136 ± 17 mPa·s
- viscosity (293.15 K, 100 kPa, x2 = 0.25): 103 ± 13 mPa·s
- viscosity (298.15 K, 100 kPa, x2 = 0.75): 76 ± 9 mPa·s
- viscosity (303.15 K, 100 kPa, x2 = 0.5): 60 ± 7 mPa·s

SMILES: CC1COC(=O)O1 (configuration not stated) + CC[n+]1ccn(C)c1.N#C[S-]
- viscosity (293.15 K, 101.3 kPa, x2 = 0): 2.945 ± 0.066 mPa·s
- viscosity (308.15 K, 101.3 kPa, x2 = 0): 1.919 ± 0.062 mPa·s
- viscosity (333.15 K, 101.3 kPa, x2 = 0): 1.293 ± 0.061 mPa·s

SMILES: CCC[N+]1(C)CCCC1.O=S(=O)([N-]S(=O)(=O)C(F)(F)F)C(F)(F)F + CCCC[N+]1(C)CCCC1.O=S(=O)([N-]S(=O)(=O)C(F)(F)F)C(F)(F)F
- electrical conductivity (293.15 K, 101 kPa, x2 = 0.25): 0.248 ± 0.025 S/m
- viscosity (293.15 K, 101 kPa, x2 = 0.25): 81.4 ± 8.5 mPa·s
- electrical conductivity (333.15 K, 101 kPa, x2 = 0): 1.18 ± 0.12 S/m
- viscosity (333.15 K, 101 kPa, x2 = 0): 18.8 ± 1.9 mPa·s
- electrical conductivity (333.15 K, 101 kPa, x2 = 0.75): 1.01 ± 0.1 S/m
- viscosity (333.15 K, 101 kPa, x2 = 0.75): 20.7 ± 2.1 mPa·s
- electrical conductivity (353.15 K, 101 kPa, x2 = 0.5): 1.5 ± 0.15 S/m
- viscosity (353.15 K, 101 kPa, x2 = 0.5): 12.2 ± 1.3 mPa·s

SMILES: O + CCCO + CCCCCCCCCCCCOS(=O)(=O)[O-].[Na+]
- electrical conductivity (298 K, 100 kPa, frequency 0.001 MHz, x2 = 0, x1 = 1): 0.0005 ± 0.00062 S/m

SMILES: O + CCCCCCCCCCCCOS(=O)(=O)[O-].[Na+] + CCCCCCCCCCCCCCCC[N+](C)(C)C.[Br-]
- electrical conductivity (298.15 K, 101 kPa, frequency 0.001 MHz, x2 = 0, x3 = 0): 0.000321 ± 3.2e-05 S/m
